Measured values: patent US20250130225A1, “SUBSTRATES FOR IMAGING GLUCOCEREBROSIDASE ACTIVITY” (SIMON FRASER UNIVERSITY, priority 2021, published 2025)
Blank lines part the entries; values can stand above or below the compound they belong to.

Columns and labels:
[1] = target: T1, GCase (Homo sapiens, UniProt P04062); test: GCase inhibition by AT3375 in live SK-N-SH cells read with substrate 1; assay type: cell-based; conditions: 10 μM AT3375 with 5 μM substrate 1, 2 h
T1 construct: High content imaging of SK-N-SH cells incubated for 2 h; endogenous in cells; host or cells: SK-N-SH
T1 sequence (P04062 40-536): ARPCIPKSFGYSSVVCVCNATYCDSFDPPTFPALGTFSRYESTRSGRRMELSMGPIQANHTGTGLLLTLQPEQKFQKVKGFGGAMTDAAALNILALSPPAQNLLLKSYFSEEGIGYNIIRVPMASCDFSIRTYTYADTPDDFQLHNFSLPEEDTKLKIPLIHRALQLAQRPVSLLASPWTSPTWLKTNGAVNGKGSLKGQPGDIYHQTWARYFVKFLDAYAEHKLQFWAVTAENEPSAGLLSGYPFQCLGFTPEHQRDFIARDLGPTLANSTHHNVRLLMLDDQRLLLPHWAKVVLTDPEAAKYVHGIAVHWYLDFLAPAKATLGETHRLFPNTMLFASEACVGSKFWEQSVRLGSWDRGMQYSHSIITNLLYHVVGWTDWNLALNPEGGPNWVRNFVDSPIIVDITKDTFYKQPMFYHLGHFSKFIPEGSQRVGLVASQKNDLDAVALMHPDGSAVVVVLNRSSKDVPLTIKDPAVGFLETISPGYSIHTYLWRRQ
Method: After incubation at 37° C. and 5% CO2 for 2 h, the media was removed and the cells were washed.
After incubation at 37° C. and 5% CO2 for 2 h, the media was removed, and the cells were washed. The plate was then imaged using a Molecular Devices ImageXpress XLS High-Content Imager. From the images, the total mean integrated intensity was measured for the FITC channel and divided by the number of cells within the imaging site as determined by the DAPI staining.

[2] = Fluorescence emission spectrum and quenching efficiency of substrate 1 versus BODIPY FL-acid; assay type: physicochemical
Method: Fluorescence emission spectra for substrate 1 and BODIPY® FL-acid: The emission spectra were obtained for substrate 1 and BODIPY® FL-acid in citrate-phosphate buffer (150 mM; pH 5.4) containing 1% DMSO and 0.25% taurodeoxycholate. Data were collected using a Molecular Devices plate reader ([…]). […] The excitation wavelength used was 485 nm and the emission wavelength was 513 nm.
Determination of the quenching efficiencies for substrate 1 using concentration dependent variation in the fluorescence emission of substrate 1 and its corresponding fluorophore BODIPY® FL-acid: The quenching efficiencies were determined by comparing the fluorescence emission standard curves of substrate 1 and comparing it to that of BODIPY® Fl-acid.

[3] = target: T2, purified recombinant GCase (Homo sapiens, UniProt P04062); test: In-vitro kinetic assay with purified recombinant GCase; assay type: biochemical; conditions: same kinetic assay, substrate 3 vs 9b
T2 construct: purchased R&D Systems
T2 sequence (P04062 40-536): T1 sequence (P04062 40-536)
Method: (§1) In-vitro kinetic assay for substrate 1. Continuous assays were performed at 30° C. in citrate-phosphate buffer (150 mM; pH 5.4) containing 0.25% taurodeoxycholate. The concentrations of substrate 1 used in assays were 0.39, 0.78, 1.56, 3.13 6.25, 12.5, 25 and 50 μM. Reactions were initiated by the addition of purified recombinant GCase (2.5 nM, R&D Systems) and the reaction was monitored continuously over 1200 seconds to determine the initial rate of change of fluorescence. Standard curves were constructed using BODIPY® Fl-acid using the same buffer conditions. […] Assays were carried out in triplicate.
as §1, with “Comparative In-vitro” for “In-vitro”, “substrate 3 and 9b.” for “substrate 1.”, “of substrates 3 and 9b” for “of substrate 1”, “were 0.156, 0.313, 0.625, 1.25, 2.5, 5, 10,” for “were 0.39, 0.78, 1.56, 3.13 6.25, 12.5, 25”, “and 20” for “and 50”, “using TAMRA and BODIPY-576” for “using BODIPY® Fl-acid”

SMILES: O[C@H]1[C@H](O)CNC[C@@H]1C(F)F [AT3375, (3R,4R,5S)-5-(difluoromethyl)piperidine-3,4-diol]
- effect on fluorescent signal from substrate 1 [1]: significant reduction of the punctuated fluorescent signal

- fluorescence emission of intact substrate compared to free fluorophore BODIPY FL-acid ([2]; 6.25 μM, citrate-phosphate buffer 150 mM, pH 5.4, excitation 485 nm, emission 513 nm): strikingly little fluorescence
- quenching efficiency ([2]; fluorescence emission standard curves compared to BODIPY Fl-acid): greater than 99.7%
SMILES: COc1cc(/N=N/c2ccc(C)cc2[N+](=O)[O-])c(C)cc1/N=N/c1ccc(N(C)CCCC(=O)NCCCO[C@@H]2O[C@H](COCc3cn(CCCNC(=O)[C@H](CCCCN(C)C)NC(=O)CCC4=[N+]5C(=Cc6c(C)cc(C)n6[B-]5(F)F)C=C4)nn3)[C@@H](O)[C@H](O)[C@H]2O)cc1 [substrate 1, (S)-2-(3-(5,5-difluoro-7,9-dimethyl-dipyrrolo[1,2-c:2′,1′-f][1,3,2]diazaborinin-4-ium-5-uid-3-yl)propanamido)-6-(dimethylamino)-N-(3-(4-((((2R,3S,4S,5R,6R)-3,4,5-trihydroxy-6-(3-(4-((4-((E)-(2-methoxy-5-methyl-4-((E)-(4-methyl-2-nitrophenyl)diazenyl)phenyl)diazenyl)phenyl)(methyl)amino)butanamido)propoxy)tetrahydro-2H-pyran-2-yl)methoxy)methyl)-1H-1,2,3-triazol-1-yl)propyl)hexanamide]

- second order rate constant relative to 9b [3]: more than 5 fold
SMILES: COc1cc(/N=N/c2ccc([N+](=O)[O-])cc2)c(OC)cc1/N=N/c1ccc(N(C)CCCC(=O)NCCc2ccc(O[C@@H]3O[C@H](COCCCCn4cc(CNC(=O)[C@H](CCCCN(C)C)NC(=O)c5ccc(-c6c7ccc(=[N+](C)C)cc-7oc7cc(N(C)C)ccc67)c(C(=O)O)c5)nn4)[C@@H](O)[C@H](O)[C@H]3O)cc2)cc1 [substrate 3, 5-(((S)-1-(((1-(4-(((2R,3S,4S,5R,6S)-6-(4-(2-(4-((4-((E)-(2,5-dimethoxy-4-((E)-(4-nitrophenyl)diazenyl)phenyl)diazenyl)phenyl)(methyl)amino)butanamido)ethyl)phenoxy)-3,4,5-trihydroxytetrahydro-2H-pyran-2-yl)methoxy)butyl)-1H-1,2,3-triazol-4-yl)methyl)amino)-6-(dimethylamino)-1-oxohexan-2-yl)carbamoyl)-2-(6-(dimethylamino)-3-(dimethyliminio)-3H-xanthen-9-yl)benzoate]
